According to patent US11718631B2, “Sulphonamides and compositions thereof for treating conditions associated with NLRP activity” (Novartis AG, priority 2017, dated 2023):
Where two headings read alike, the source gives them in different places.

Target: T1, NLRP3 (Homo sapiens, UniProt Q96P20)
T1 construct: IL-1β Production in PMA-Differentiated THP-1 Cells Stimulated with Gramicidin; host or cells: THP-1 cells, PMA-differentiated
Assay: IL-1β production in PMA-differentiated THP-1 cells stimulated with gramicidin (hTHP-1 assay)
Assay type: cell-based
Conditions: hTHP-1 assay containing 2% fetal bovine serum, read-out: NLRP3 Antagonist, human THP1 NLRP3, IL-1b, Normalized: GeoMean IC50
Procedure: IL-1β Production in PMA-Differentiated THP-1 Cells Stimulated with Gramicidin.
THP-1 cells were purchased from the American Type Culture Collection and sub-cultured according to instructions from the supplier. […] Prior to the experiment THP-1 were treated with PMA (Phorbol 12-myristate 13-acetate) (20 ng/ml) for 16-18 hours. On the day of the experiment the media was removed and adherent cells were detached with trypsin for 5 minutes. […] A vehicle only control was run concurrently with each experiment. Final DMSO concentration was 0.38%.
THP-1 cells were purchased from the American Type Culture Collection and sub-cultured according to instructions from the supplier. […] Prior to the experiment THP-1 were treated with PMA (Phorbol 12-myristate 13-acetate) (20 ng/ml) for 16-18 hours. Compounds were dissolved in dimethyl sulfoxide (DMSO) to generate a 30 mM stock. On the day of the experiment the media was removed and adherent cells were detached with trypsin for 5 minutes. […] Final DMSO concentration was at 0.37%. Cells were incubated with compounds for 1 hour and then stimulated with gramicidin (5 μM) (Enzo) for 2 hours. Plates were then centrifuged at 340 g for 5 min. Cell free supernatant (40 μL) was collected using a 96-channel PlateMaster (Gilson) and the production of IL-1p was evaluated by HTRF (cisbio).
IL-1p Production in PMA-Differentiated THP-1 Cells Stimulated with Gramicidin.
THP-1 cells were purchased from the American Type Culture Collection and sub-cultured according to instructions from the supplier. […] Prior to the experiment, compounds were dissolved in dimethyl sulfoxide (DMSO) to generate a 30 mM stock. […] DMSO was backfilled in the plate to achieve a final DMSO assay concentration of 0.37%. The plate was then sealed and stored at room temperature until required.
THP-1 cells were treated with PMA (Phorbol 12-myristate 13-acetate) (20 ng/ml) for 16-18 hours. On the day of the experiment the media was removed and adherent cells were detached with trypsin for 5 minutes. […] The plates were incubated for 18 h at 4° C. and read using the preset HTRF program (donor emission at 620 nm, acceptor emission at 668 nm) of the SpectraMax i3x spectrophotometer (Molecular Devices, software SoftMax 6).

T1 sequence (Q96P20 whole entry): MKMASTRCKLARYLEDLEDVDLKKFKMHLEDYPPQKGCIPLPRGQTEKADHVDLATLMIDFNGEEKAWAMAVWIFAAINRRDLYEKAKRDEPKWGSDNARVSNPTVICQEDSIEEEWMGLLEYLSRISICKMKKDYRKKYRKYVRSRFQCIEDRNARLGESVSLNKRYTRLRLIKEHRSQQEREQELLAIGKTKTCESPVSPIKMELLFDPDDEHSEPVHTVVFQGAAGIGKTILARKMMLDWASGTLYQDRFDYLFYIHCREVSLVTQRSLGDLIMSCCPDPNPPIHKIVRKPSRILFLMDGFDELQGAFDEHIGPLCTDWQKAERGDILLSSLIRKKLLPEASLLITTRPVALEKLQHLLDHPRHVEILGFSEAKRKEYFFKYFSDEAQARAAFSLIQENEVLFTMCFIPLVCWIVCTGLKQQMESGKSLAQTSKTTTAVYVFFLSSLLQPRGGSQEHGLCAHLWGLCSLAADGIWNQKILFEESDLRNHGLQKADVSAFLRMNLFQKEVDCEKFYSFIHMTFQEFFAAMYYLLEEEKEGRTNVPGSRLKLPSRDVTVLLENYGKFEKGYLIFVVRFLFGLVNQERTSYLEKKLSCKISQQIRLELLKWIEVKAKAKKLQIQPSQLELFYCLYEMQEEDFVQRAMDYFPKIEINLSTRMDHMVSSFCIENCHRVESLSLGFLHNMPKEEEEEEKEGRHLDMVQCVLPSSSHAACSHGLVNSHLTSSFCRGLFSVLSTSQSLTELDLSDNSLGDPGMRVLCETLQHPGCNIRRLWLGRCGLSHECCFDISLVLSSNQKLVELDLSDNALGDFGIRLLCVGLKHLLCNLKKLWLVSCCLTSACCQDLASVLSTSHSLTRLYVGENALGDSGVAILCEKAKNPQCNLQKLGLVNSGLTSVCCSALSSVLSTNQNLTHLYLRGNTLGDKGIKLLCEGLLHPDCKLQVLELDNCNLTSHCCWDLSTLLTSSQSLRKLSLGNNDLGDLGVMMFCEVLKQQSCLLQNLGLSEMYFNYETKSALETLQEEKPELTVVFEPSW

Row | IC50 (average IC50, class symbols) | IC50 (average IC50, given as numeric bound) | Structure (SMILES)
1 | 1 to 5 µM |  | CC(C)c1cc(CCC2CCCC2)cc(C(C)C)c1CC(=O)NS(=O)(=O)c1ccc(CN(C)C)cc1 [Compound 325, 2-[4-(2-cyclopentylethyl)-2,6-bis(propan-2-yl)phenyl]-N-{4-[(dimethylamino)methyl]benzene-sulfonyl}acetamide]
2 | 1 to 5 µM |  | CC(C)c1cc(-c2ccc(Cl)cc2)cc(C(C)C)c1CC(=O)NS(=O)(=O)c1ccc(CN(C)C)cc1 [Compound 116, 2-[4-(4-chlorophenyl)-2,6-di(propan-2-yl)phenyl]-N-[4-[(dimethylamino)methyl]phenyl] sulfonylacetamide]
3 | 0.04 to 0.2 µM |  | CC(C)c1cc(-c2ccc3ccccc3c2)cc(C(C)C)c1CC(=O)NS(=O)(=O)c1ccc(CN(C)C)cc1 [Compound 139, N-[4-[(dimethylamino)methyl]phenyl] sulfonyl-2-[4-naphthalen-2-yl-2,6-di(propan-2-yl)phenyl] acetamide]
4 | 1 to 5 µM |  | CC(C)c1cc(C#CC2CCOCC2)cc(C(C)C)c1CC(=O)NS(=O)(=O)c1ccc(CN(C)C)cc1 [Compound 313, N-{4-[(dimethylamino)methyl]benzene-sulfonyl}-2-{4-[2-(oxan-4-yl)ethynyl]-2,6-bis(propan-2-yl)phenyl}acetamide]

Second part, the molecule before the results:

Row | Structure (SMILES) | IC50 (average IC50, class symbols) | IC50 (average IC50, given as numeric bound)
5 | CC(C)c1cc(C2CCC(C)(C)CC2)cc(C(C)C)c1CC(=O)NS(=O)(=O)c1ccc(CN(C)C)cc1 [Compound 316, N-{4-[(dimethylamino)methyl]benzene-sulfonyl}-2-[4-(4,4-dimethylcyclohexyl)-2,6-bis(propan-2-yl)phenyl]acetamide] | 1 to 5 µM | 
6 | CC(C)c1cc(-c2cccc3cccnc23)cc(C(C)C)c1CC(=O)NS(=O)(=O)c1ccc(CN(C)C)cc1 [Compound 114] | 1 to 5 µM | 
7 | Cc1ccc(-c2cc(C(C)C)c(CC(=O)NS(=O)(=O)c3ccc(CN(C)C)cc3)c(C(C)C)c2)cc1F [Compound 111, N-[4-[(dimethylamino)methyl]phenyl] sulfonyl-2-[4-(3-fluoro-4-methylphenyl)-2,6-di(propan-2-yl)phenyl]acetamide] | 1 to 5 µM | 
8 | CC(C)c1cc(C(=O)c2ccccc2)cc(C(C)C)c1CC(=O)NS(=O)(=O)c1ccc(CN(C)C)cc1 [Compound 373, 2-[4-benzoyl-2,6-bis(propan-2-yl)phenyl]-N-{4-[(dimethylamino)methyl]benzenesulfonyl}acetamide] |  | > 30 µM
9 | C/C=C(\C)c1cc(C(C)C)c(CC(=O)NS(=O)(=O)c2ccc(CN(C)C)cc2)c(C(C)C)c1 [Compound 145] | 1 to 5 µM | 
10 | CC(C)c1cc(C2=CCCC2)cc(C(C)C)c1CC(=O)NS(=O)(=O)c1ccc(CN(C)C)cc1 [Compound 107, 2-[4-(cyclopenten-1-yl)-2,6-di(propan-2-yl)phenyl]-N-[4-[(dimethylamino)methyl]phenyl] sulfonylacetamide] | 1 to 5 µM | 
11 | CC(C)c1cc(CC2=CCCCC2)cc(C(C)C)c1CC(=O)NS(=O)(=O)c1ccc(CN(C)C)cc1 [Compound 377, 2-[4-(cyclohex-1-en-1-ylmethyl)-2,6-bis(propan-2-yl)phenyl]-N-{4-[(dimethylamino)methyl]benzenesulfonyl}acetamide] | 1 to 5 µM | 
12 | Cc1ccc(-c2cc(C(C)C)c(CC(=O)NS(=O)(=O)c3ccc(CN(C)C)cc3)c(C(C)C)c2)cc1 [Compound 110, N-[4-[(dimethylamino)methyl]phenyl] sulfonyl-2-[4-(4-methylphenyl)-2,6-di(propan-2-yl)phenyl] acetamide] | 1 to 5 µM | 
13 | CC(C)c1cc(-c2ccccc2CO)cc(C(C)C)c1CC(=O)NS(=O)(=O)c1ccc(CN(C)C)cc1 [Compound 124, N-[4-[(dimethylamino)methyl]phenyl] sulfonyl-2-[4-[2-(hydroxymethyl)phenyl]-2,6-di(propan-2-yl)phenyl]acetamide] | 5 to 30 µM | 
